In patent publication US20180206501A1, “CONTROLLING DISEASES AND INSECTS IN PLANTS” (priority 2017, published 2018):

How the values were obtained:
[1] = test system: Cercospora; assay: Laboratory over-spray of sugar beet leaf cultures on agar incubation plates; format: cell-based; settings: L-1 and Control leaf cultures; 0.5% solution with 5211 surfactant in water; 24 hours incubation
Protocol: The initial leaf cuttings from L-1 to L-3 were used for additional evaluations. […] All of the leaves were very green, showing no signs of Cercospora. When the leaves were cultured and incubated (three plates per sample), the plate counts on all of the samples were too numerous to count (TNTC) indicating signs of Cercospora infection.
The control sample was taken from a known infected control sample. In addition to the normal culturing process, leaf samples from L-1 and the Control were treated in the laboratory. This involved placing the leaf culture onto the agar incubation plate, over spraying the plate with a 0.5% solution Ztrex 72 and 5211 surfactant in water. The plates were further incubated for 24 hours.
Our Control sample was obtained from Michigan Sugar Company, Bay City, Mich. and was used for all of the initial lab studies.

[2] = Appearance of the solution in water pH = 10 at 24 hours; format: physicochemical; settings: 50% stock plus water pH = 10
[3] = test system: Escherichia coli (E. coli); assay: Microbial testing, standard pour plate count; format: cell-based
Protocol: The purpose of this study was to evaluate the effectiveness of test materials labeled #6, #7 and #8, in killing or reducing Escherichia coli (E. coli). The standard pour plate count test method was used to evaluate Percent Reduction of Colony Forming Units (CFU).
The E. coli (lot number 168756) was purchased from Quanti-Cult™ and is derived from original ATCC® stock cultures. They are received dehydrated. A viable streak plate was colonized from this culture. One colony was transferred to 5 ml of sterile Tryptic Soy Broth (lot # A3303) and incubated overnight. Antimicrobial activity was determined by comparing results from the test sample to simultaneously run controls or from the T0. The concentration of the suspension was determined using serial dilution and plate counts to determine the amount of Colony Forming Units (CFU's)/ml of suspension.
The materials tested in this study are described in the Purpose section. Sterile 0.3 mM KH2PO4 buffer was inoculated to a concentration of ˜1.0-3.0×10^5 CFU/ml. A To plate originated from the inoculated buffer for quantification and prepared 1:100 dilution to insure that viable inoculum was applied in the test system. The test materials were formulated in 20×150 […] test tubes. Aliquots of 0.3 grams of each of the materials (#6, #7 and #8) were added to sterile test tubes. […]

| SMILES | Evidence of Cercospora on the incubation plate [1] | Solution @ 24 hours [2] | Application, microbial kill [3] | Plate count ([3]; 0.3 grams in 5 ml Tryptic Soy Broth, 1×10^5 CFU E. coli, 48 hours, T0 9.6×10^4 CFU/ml) |
| --- | --- | --- | --- | --- |
| CCCCCCCCCCCCCCCCCC[N+](C)(C)CCC[Si](OC)(OC)OC.[Cl-] [Ztrex 72, (CH3O) Si (CH2)N^+ (CH3)2 (C18H37) Cl^−] | no evidence of Cercospora | – | – | – |
| CO[Si](CCc1ccc(S(=O)(=O)Cl)cc1)(OC)OC [#8, 2-(4-chlorosulfonylphenyl)ethyltrimethoxysilane] | – | Clear | 99.99 | 16 CFU/ml |
